Data on twelve molecules can be found in patent publication US5698560A, “Imidazoquinazoline derivatives” (Kyowa Hakko Kogyo Co., Ltd., priority 1995, dated 1997).

Counter-ions that a name gives are not always drawn.

The target in experiment [1] is T1, PDE V (cGMP-specific PDE) (Canis lupus familiaris, UniProt O77746).
T1 construct: PDE V (cGMP-specific PDE) was purified from canine tracheal smooth muscle; from tissue; host or cells: canine tracheal smooth muscle
In words: inhibitory activity on PDE V derived from canine tracheal smooth muscle. In kind it is biochemical. Conditions: 1 nM compound; substrate 1.0 μM [3H]cGMP; pH 7.2; 30° C., 10 to 30 minutes; inhibitor dissolved in 1.7% DMSO; read-out: PDE V Inhibitory activity, inhibition rate (%). On the procedure: The inhibitory activity on PDE derived from canine tracheal smooth muscle
According to the method of Torphy et al. [Mol. Pharmacol., 37, 206 (1990)], PDE V (cGMP-specific PDE) was purified from canine tracheal smooth muscle.
The activity was measured based on the method of Kincaid et al. [J. D. Corbin et al., Methods Enzymol., 159, 457 (1988), Academic Press, New York]. The measurement was carried out using, as a substrate, 1.0 μM [^3 H]cGMP, and the reaction was carried out in a buffer having the following composition:
50 mM N,N-bis(2-hydroxyethyl)-2-aminoethanesulfonic acid (pH 7.2), 1 mM MgCl2, 0.1 mg/ml soybean trypsin inhibitor
The reaction was started by addition of an enzyme and stopped by addition of hydrochloric acid after 10 to 30 minutes at 30° C. Thereafter, sodium hydroxide was added for neutralization and 5'-GMP was converted into guanosine using 5'-nucleotidase. The reaction solution was subjected to DEAE-Sephadex A-25 column. [^3 H]Guanosine was eluted with distilled water and the radioactivity was measured with a liquid scintillation counter. The inhibitor was dissolved in 1.7% DMSO.

For experiment [2], the system named is rats. The experiment in a line: hypotensive effect in anesthetized rats (duodenal administration). Conditions: rat, i.d., within 30 minutes, average of N = 2. Format: in vivo, male Sprague-Dawley rat. The protocol: The hypotensive effect in rats
After a male Sprague-Dawley rat anesthetized with urethane was fixed in the supine position, a cannula was inserted into trachea and the rat was artificially ventilated under the conditions of a tidal volume of […] and 60 breathes/min. The carotid artery and the duodenum were cannulated for measuring blood pressure and administering a drug, respectively. The drug was dissolved in distilled water and administered duodenally using the above cannula. Mean blood pressure (mBP) until 30 minutes after the drug-administration was measured and the maximum loweing rate (%) from the value before the drug-administration (100%) was determined. The average value of 2 samples was calculated in each dose. No change of mBP was observed during 30 minutes in case of administering distilled water.

`CCn1c(=S)[nH]c2cc3c(NCc4cccc(OCCCN5CCOCC5)c4)ncnc3cc21` [Compound 79, 3-Ethyl-8-[3-(3-morpholinopropoxy)benzylamino]-2,3-dihydro-1H-imidazo[4,5-g]quinazoline-2-thione.2 hydrochloride]: the inhibition at 0.001 µM in experiment [1] worked out at 95%.

In the case of `CCOC(=O)C1CCN(Cc2ccccc2CNc2ncnc3cc4c(cc23)[nH]c(=S)n4CC)CC1` [Compound 75, 3-Ethyl-8-{2-[4-(ethoxycarbonyl)piperidin-1-ylmethyl]benzylamino}-2,3-dihydro-1H-imidazo[4,5-g]quinazoline-2-thione.2 hydrochloride], the inhibition at 0.001 µM in experiment [1] is 92%.

Take `CCn1c(=S)[nH]c2cc3c(NCc4ccc(CN5CCCCC5)cc4)ncnc3cc21` [Compound 15, 3-Ethyl-8-[4-(piperidinomethyl)benzylamino]-2,3-dihydro-1H-imidazo[4,5-g]quinazoline-2-thione.2 hydrochloride]: in experiment [1], the inhibition at 0.001 µM was 63%.

On to `CCn1c(=S)[nH]c2cc3c(NCc4ccccc4CN4CCOCC4)ncnc3cc21` [Compound 4, 3-Ethyl-8-[2-(morpholinomethyl)benzylamino]-2,3-dihydro-1H-imidazo[4,5-g]quinazoline-2-thione.2 hydrochloride], for which the inhibition at 0.001 µM in experiment [1] was found to be 97%. For the same molecule, the “Hypotensive activity, Maximum lowering rate (%) of mean blood pressure (mBP)” value in experiment [2] (0.1 mg/kg) came out at 9.0%; in experiment [2] (1 mg/kg), 21.5%; in experiment [2] (10 mg/kg), 25.1%.

Take `CCOC(=O)C1CCN(Cc2ccccc2CNc2ncnc3cc4c(cc23)[nH]c(=O)n4CC)CC1` [Compound 76, 3-Ethyl-8-{2-[4-(ethoxycarbonyl)piperidin-1-ylmethyl]benzylamino}-2,3-dihydro-1H-imidazo[4,5-g]quinazolin-2-one.2 hydrochloride]: the inhibition at 0.001 µM in experiment [1] amounted to 88%.

Consider `CCn1c(=S)[nH]c2cc3c(NCc4ccccc4OCCN4CCOCC4)ncnc3cc21` [Compound 29, 3-Ethyl-8-[2-(2-morpholinoethoxy)benzylamino]-2,3-dihydro-1H-imidazo[4,5-g]quinazoline-2-thione.2 hydrochloride], for which the inhibition at 0.001 µM in experiment [1] came to 91%.

For `CCn1c(=O)[nH]c2cc3c(NCc4ccccc4OCCN4CCOCC4)ncnc3cc21` [Compound 21, 3-Ethyl-8-[2-(2-morpholinoethoxy)benzylamino]-2,3-dihydro-1H-imidazo[4,5-g]quinazolin-2-one.2 hydrochloride], the inhibition at 0.001 µM in experiment [1] was 29%.

As to `CCn1c(=S)[nH]c2cc3c(NCc4ccc(OCCN5CCOCC5)cc4)ncnc3cc21` [Compound 42, 3-Ethyl-8-[4-(2-morpholinoethoxy)benzylamino]-2,3-dihydro-1H-imidazo[4,5-g]quinazoline-2-thione.2 hydrochloride], the inhibition at 0.001 µM in experiment [1] is 89%.

On to `CCn1c(=S)[nH]c2cc3c(NCc4ccccc4OCCN4CCN(C)CC4)ncnc3cc21` [Compound 32, 3-Ethyl-8-{2-[2-(4-methylpiperazin-1-yl)ethoxy]benzylamino}-2,3-dihydro-1H-imidazo[4,5-g]quinazoline-2-thione.3 hydrochloride], for which, in experiment [1], the inhibition at 0.001 µM is 79%.

As for `CCN(CC)CCCOc1cccc(CNc2ncnc3cc4c(cc23)[nH]c(=S)n4CC)c1` [Compound 80, 8-{3-[3-(Diethylamino)propoxy]benzylamino}-3-ethyl-2,3-dihydro-1H-imidazo[4,5-g]quinazoline-2-thione.2 hydrochloride], in experiment [1], the inhibition at 0.001 µM was determined as 92%.

`CCn1c(=S)[nH]c2cc3c(NCc4ccccc4CN4CC=CCC4)ncnc3cc21` [Compound 71, 3-Ethyl-8-[2-(1,2,3,6-tetrahydropyridin-1-ylmethyl)benzylamino]-2,3-dihydro-1H-imidazo[4,5-g]quinazoline-2-thione.2 hydrochloride]: the inhibition at 0.001 µM in experiment [1] was determined as 97%. In addition, the “Hypotensive activity, Maximum lowering rate (%) of mean blood pressure (mBP)” value turned out to be 16.1% in experiment [2] (0.1 mg/kg), 22.8% in experiment [2] (1 mg/kg) and 23.2% in experiment [2] (10 mg/kg).

Consider `CCn1c(=O)[nH]c2cc3c(NCc4ccccc4CN4CCOCC4)ncnc3cc21` [Compound 1, 3-Ethyl-8-[2-(morpholinomethyl)benzylamino]-2,3-dihydro-1H-imidazo[4,5-g]quinazolin-2-one.2 hydrochloride], for which the inhibition at 0.001 µM in experiment [1] came to 74%.

The inhibition is the relative decrease from the control value, in per cent.
